Results from patent US9127016B2, “Small molecule inhibitors of Dusp6 and uses therefor” (University of Pittsburgh—Of the Commonwealth System of …, priority 2009, dated 2015).

Experiments:
[1] = biological target: T1, recombinant His-tagged Dusp6 (Homo sapiens, UniProt Q16828); test: In vitro pERK2 dephosphorylation assay (Western blot); type: biochemical; conditions: 100 μM
T1 construct: His
T1 sequence (Q16828 1-381): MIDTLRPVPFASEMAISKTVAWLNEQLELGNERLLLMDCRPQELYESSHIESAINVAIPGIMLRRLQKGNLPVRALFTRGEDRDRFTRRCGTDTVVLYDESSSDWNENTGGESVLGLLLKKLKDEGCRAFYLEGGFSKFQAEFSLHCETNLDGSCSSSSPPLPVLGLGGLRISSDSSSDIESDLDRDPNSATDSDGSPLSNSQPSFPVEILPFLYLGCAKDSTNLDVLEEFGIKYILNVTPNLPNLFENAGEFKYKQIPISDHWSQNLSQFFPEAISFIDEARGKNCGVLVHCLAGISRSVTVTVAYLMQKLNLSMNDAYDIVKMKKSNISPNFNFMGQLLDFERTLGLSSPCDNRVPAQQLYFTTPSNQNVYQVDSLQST
Protocol: ERK dephosphorylation assays were performed as described previously with several modifications (Lazo, J. S. et al. J Pharmacol Exp Ther 322, 940-7 (2007)). Briefly, recombinant His-tagged Dusp6 (1.5 ng) was incubated for 20 minutes at 25° C. in the presence of 100 μM BCI, 100 μM ICD or 1 mM sodium orthovanadate. Tyrosine and threonine phosphorylated ERK2 (New England Biolabs; 10 ng) was added and reaction mixture (30 mM Tris-HCl, pH 7.0, 75 mM NaCl, 0.67 mM EDTA, 1 mM DTT and 0.033% bovine serum albumin) was incubated at 25° C. for a further 60 min. ERK desphosphorylation was determined by Western blotting using 10% Tris-glycine gels and a monoclonal phospho-p44/42 MAPK antibody (Cell Signaling) at 1:1000 dilution. Total ERK was measured as a loading control using an anti-ERK antibody (Cell Signaling).

[2] = tested on: FGF signaling (Tg(Dusp6:d2EGFP)pt6 reporter); test: Transgenic zebrafish chemical screen, d2EGFP fluorescence; type: in vivo; conditions: for d2EGFP fluorescence in treated transgenic embryos: 24 hpf embryos, 6-8 hours, analogs even at four-fold higher concentrations
Protocol: Tg(dusp6:d2EGFP)pt6 embryos were obtained by natural crossings and incubated at 28.5° C. until they reached 24 hpf. Five transgenic embryos were placed into each well from a 96-well plate in 200 μl of E3, and a 0.5% DMSO solution was added along with compound from each library at 10 μM. The NCI diversity set (NCl/NIH), the Natural Products library (MicroSource Discovery Systems Inc.) and Phosphatase targeted set (Chembridge) were screened in this study. (E)-2-Benzylidene-3-(cyclohexylamino)-2,3-dihydro-1H-inden-1-one (BCI; also known as NSC150117) was identified as a compound that enhanced fluorescence in treated transgenic embryos. Treated embryos were photographed under the same settings for exposure, gain and magnification for each picture using a MZFLIII (Leica) microscrope and fluorescent illumination for GFP using endow cube (Chroma Technology Corp., Rockingham, Vt.). Qimaging software and the Retiga Exi camera (Qimaging, Burnaby, BC Canada) were used to capture the images.
We previously described the generation of a transgenic zebrafish line, (Tg(Dusp6:d2EGFP)pt6) that expresses destabilized green fluorescent protein (d2EGFP) under the control of FGF signaling (Molina, G. A., et al. BMC Dev Biol 7, 62 (2007)). Using Tg(Dusp6:d2EGFP) embryos as a biosensor for FGF signaling, we screened over 5000 diverse compounds assembled from chemical libraries for small molecule modulators of this pathway. Five transgenic embryos at 24 hours post fertilization (hpf) were arrayed into each well of a 96-well plate containing test compounds at 10 μM. d2EGFP intensity in treated embryos was visually analyzed and compared to vehicle control (0.5% DMSO) after 6-8 hours. […] To confirm that BCI hyperactivated FGF signaling, we treated embryos prior to gastrulation (5 hpf), and we analyzed by whole mount in situ hybridization, the expression of ntl (zebrafish brachyury), a known FGF target gene (Latinkic, B. V. et al. Genes Dev 11, 3265-76 (1997)). […] We next determined the BCI structural features required to enhance FGF signaling. Two analogs, (E)-2-benzylidene-2,3-dihydro-1H-inden-1-one (BI) lacking the cyclohexylamino group, and 3-(cyclohexylamino)-2,3-dihydro-1H-inden-1-one (ICD) lacking the benzylidene group were synthesized).

SMILES	suppression of Dusp6-mediated pERK2 dephosphorylation [1]	d2EGFP fluorescence in treated transgenic embryos [2]	d2EGFP expression in the MHB of Tg(Dusp6:d2EGFP); ace mutant embryos ([2]; BCI 10 μM, Fgf8-deficient embryos)
O=C1/C(=C/c2ccccc2)C(NC2CCCCC2)c2ccccc21 (centres unmarked) [Compound 3, (E)-2-benzylidene-3-(cyclohexylamino)-2,3-dihydro-1H-inden-1-one]	specifically suppressed Dusp6 activity	enhanced d2EGFP fluorescence in a concentration-dependent manner	did not induce d2EGFP expression
O=C1CC(NC2CCCCC2)c2ccccc21 (centres unmarked) [Compound 17, 3-(Cyclohexylamino)-2,3-dihydro-1H-inden-1-one]	did not	inactive	
